Source: US5705649A, “Protein staining compositions and methods” (Promega Corporation, priority 1995, dated 1998)
Each block holds one compound with its values, some of them ahead of it.

Tests used:
[1] = tested on: Promega Mid Range Molecular Weight standard; test: Post-electrophoretic staining with fluorescein isothiocyanate derivatives; settings: for lowest protein per band with visible bands / standards detected: 1:500 in 10% methanol, 1 hour, destained 30 min; for lowest protein per band stained: after overnight in 10% methanol
Procedure: Six 12% gels were made as described in Example 27 and were loaded with diluted Promega Mid Range Molecular Weight standard to produce lanes containing, per band, 1000, 500, 200, 100, 75, 50, 25 and 10 ng of protein. The gel was run as described in Example 27 and then the gels were incubated 15 min in 50% methanol. The gels were then transferred to individual 50 ml staining solutions, which were stock derivatized dye solutions of Example 36 diluted 1:500 with 10% methanol. After one hour, these solutions were removed and destaining with 50 ml of 10% methanol was performed. After an additional 30 min. the gels were visualized on a transilluminator and photographed. Protein bands were visible for the gels stained with amino fluorescein and p-amino benzoic acid fluorescein derivatives, however the bands were seen only in the lanes containing 1000, 500, and 200 ng of protein per band. […] At this point, the gel stained with the ethyl p-amino benzoyl derivative allowed detection of all of the proteins in the lanes containing as little as 75 ng of protein per band.
The gels were then placed in 50 ml of 10% methanol and allowed to incubate overnight at room temperature. After overnight incubation, the gels were visualized on a transilluminator and photographed. […] The gel stained with the amino derivative (reaction 5) had faded to the point where protein species were only detected in the 1000 and 500 ng protein per band lanes. However, in these lanes, only particular protein species were stained, as described above.

[2] = tested on: Promega Mid Range Molecular Weight Standards; test: Detection of fractionated protein in SDS-PAGE gels using dansyl derivatives made in acetone; settings: for lowest protein per band visible: 2% (v/v) eluate in 10% methanol
Procedure: Several 15-well, SDS-PAGE minigels were poured as described in Example 27 and loaded with Promega Mid Range Molecular Weight Standards diluted as described in Example 27 to provide samples containing 1000, 300, 100, 50, 25, 12.5, and 6.25ng of each protein per band in separate lanes of the gel. The samples were fractionated by application of 20 mA per gel until the tracking dye reached the bottom of the gel. All the gels were placed in 10% trichloroacetic acid for 5 min and then incubated for 10 min in 10% (v/v) methanol. The gels were then incubated in a 10% methanol solution containing 2% (v/v) of the derivative eluates (dissolved in 50 ml ethanol) described in Example 28. The gels were transferred to a transilluminator and both visualized and photographed after two hours of staining. The following observations were made. Only the lanes containing 1000 and 300ng of protein per band were visible in the gel incubated with the n-butyl dansyl derivative. The lanes containing the 1000, 300, 100, 50, 25ng per band were visible in the gel incubated with the n-hexyl derivative as were some of the bands in the 12.5 ng per band lane.
After overnight incubation in the stain solutions, the gels were re-observed and rephotographed.
The gels were then placed in 1% acetic acid to remove any unbound stain and rephotographed after three hours of incubation in this solution at room temperature.

[3] = tested on: Promega Mid Range Molecular Weight Standards; test: Post-electrophoretic detection of protein with purified dansyl derivatives
Procedure: Samples of the eluates from purification of the derivatives were diluted 20-fold with ethanol and the absorption of the resulting solutions from 400 to 220 nm was measured. The absorption of the solutions at 328 nm was used as an indication of the concentration of the derivative in the staining studies in Example 27.
Several SDS-PAGE minigels were made as described in Experiments with Gene Fusions, Silhavy, Berman, Enquist, supra, using the SDS concentrations described by the authors. Samples of Promega Mid Range Molecular Weight Standards were diluted into the loading solution described in the reference above to produce solutions containing 200, 100, 50, 25, and 12.5 ng of each protein species in 10 μl of solution. These solutions were loaded onto the gels and the samples were fractionated in the gels by application of 10 mA per gel until the tracking dye for the samples reached the bottom of the gel. The gels were then rinsed 1 min in distilled water, 15 min in 10% trichloracetic acid (w/v), and then for 15 min in 10% methanol (v/v). The gel segments, approximately 5×6 cm containing the fractionated standard, were then transferred to a 2% ethanol solution (50 ml) containing 0.05 OD328 -equivalent of each of the dansyl derivatives (see Example 26).
The gel segments were returned to their respective staining solutions and were incubated overnight. The following morning, all of the gel segments were again visualized on the transilluminator and photographed as described above. […] In general, relatively equivalent staining of bands was obtained as determined by the strength of the fluorescent signal observed for the various fractionated species.

[4] = Spectral analyses of Coomassie Blue R and Promega Green 1, 2, 3; type: physicochemical
Procedure: The three solutions of Promega Green 1, 2, and 3, from examples 1, 2 and 3 respectively, were diluted approximately 500 fold into a 1:1 solution of methanol:water. The spectra of the resulting solutions and of a 12 μg/ml solution of Coomassie Blue R (in 1:1 methanol:water) were recorded from 700 to 340 nm versus 1:1 methanol:water. […] All of the derivatives gave essentially identical spectra; however, the maximal absorbance of the diluted Promega Green i was about twice that seen for the other derivatives. The derivatives had two peak absorptions in the region of the spectrum scanned, a major peak at around 630 nm and a second peak at around 440 nm. The following absorbances were recorded at the peaks near 630 nm for the three Promega Green dye solutions (diluted 1:500 in 1:1 methanol:water): […]

[5] = tested on: Promega Mid-Range Molecular Weight Markers; test: Detection of proteins during SDS-PAGE electrophoresis (dye in cathode buffer); settings: 10% SDS-PAGE, dye in cathode buffer, white plastic card behind gel
Excerpt: Solutions for the formation and electrophoresis of proteins were made according to the instructions given in Experiments in Gene Fusions, Silhavy, Berman, Enquist, Cold Spring Harbor Laboratory Press, Cold Spring Harbor, N.Y. with the following changes:
a) The SDS concentration in the upper and lower gel buffer components were reduced to result in a 0.05% final SDS concentration in the gel. Thus, the composition of 4× upper gel buffer was 0.5M Tris-HCl, pH 6.8, 0.2 % (w/v) sodium dodecylsulfate (SDS) and the composition of 4× lower gel buffer was 1.5M Tris-HCl, pHS.8, 0.2 % (w/v) SDS.
b) The SDS concentration in the electrophoretic (electrode) buffer was reduced to 0.04% final concentration. Thus, 4× electrode (anode or cathode) buffer was made by dissolving 60 g Tris base, 288 g glycine, and 8 g SDS dissolved in water and then diluting with water to 5 liters. Another name sometimes used for "electrode" buffer is "running" buffer.
c) The SDS concentration in the 2× sample buffer was reduced to 1% final SDS concentration. Thus, 2× sample buffer was made by mixing 0.5 ml of betamercaptoethanol, 0.25 ml of 0.1% (w/v) bromophenol blue, 1 ml of 10 % (w/v) SDS, 3 ml of water, and 5.3 ml of 2× glycerol buffer. 2× glycerol buffer is made by mixing 12.5 ml of 4× upper gel buffer and 20 ml of glycerol and diluting the resulting solution to 60 ml with water. Another name sometimes used for "sample" buffer is "loading" buffer.
d) Electrophoresis was performed using a BIO-RAD miniprotein II electrophoresis apparatus and gels were poured such that i cm of space was present between the bottom of the loading wells and the separating gel.
In other electrophoresis experiments reported in this application, the buffers used were as described above in this example. In some cases, as in this example, where preparation of a solution of dye in 150 ml of cathode (or electrode) buffer is specified, an amount of stock solution of a dye was first added to 150 ml of cathode buffer and then 125 ml of the resulting solution was used to fill the cathode buffer chamber (which holds 125 ml) in the electrophoresis apparatus. In other cases, where addition of stock solution of dye to the cathode buffer is specified without reference to the volume of cathode buffer or with reference to such volume being "125 ml," the stock solution was added directly to 125 ml of cathode buffer already in the cathode buffer chamber.
The samples used were prepared with Promega Mid-Range Molecular Weight Markers solution (Promega Corp., Madison, Wis., USA, Catalog No. V5231) (referred to hereinafter as "Promega Mid-Range [Molecular Weight] Markers or Standards") diluted into Sample Buffer. […]

[6] = tested on: Promega Mid-Range Molecular Weight Markers; test: Enhancement of staining of proteins in SDS-PAGE gels in 5% acetic acid; settings: 5% acetic acid
Procedure: The gels described above were placed in 5% acetic acid following the termination of the electrophoretic separation. Within one to two minutes the gel developed a light green background but the protein bands dramatically darkened to a green color. […] Again, the color of the background darkened to a greater degree when greater concentrations of dye were used.
The gels above (from Example 7) were placed in 5% acetic acid following termination of the electrophoretic separation. Within 1-2 minutes, all the gels turned light green and the color of the stained bands intensified such that all proteins were visible--even in the lane containing 0.25 μg protein/band.
The gels above (Example 9) were placed in 5% acetic acid following termination of the electrophoretic separation. Within 1-2 minutes, all the gels turned light green and the color of the stained bands intensified such that all proteins were visible--even in the lanes containing 0.25 μg protein/band.

SMILES: NC(=S)Nc1ccc(-c2c3ccc(=O)cc-3oc3cc(O)ccc23)c(C(=O)O)c1 [reference compound]
lowest protein per band with visible bands [1]: 200 ng | standards detected [1]: 97, 66, 55 and 40 kDa | lowest protein per band stained [1]: 500 ng

SMILES: O=C(O)c1ccc(NC(=S)Nc2ccc(-c3c4ccc(=O)cc-4oc4cc(O)ccc34)c(C(=O)O)c2)cc1 [p-amino benzoic acid fluorescein]
lowest protein per band with visible bands [1]: 200 ng | standards detected [1]: 97, 55, 40 and 31 kDa | lowest protein per band stained [1]: 200 ng

SMILES: CCOC(=O)c1ccc(NS(=O)(=O)c2cccc3c(N(C)C)cccc23)cc1
lowest protein per band visible ([2]; two hours of staining): 25 ng

SMILES: CCOC(=O)c1ccc(NC(=S)Nc2ccc(-c3c4ccc(=O)cc-4oc4cc(O)ccc34)c(C(=O)O)c2)cc1 [ethyl p-amino benzoic acid fluorescein]
lowest protein per band with visible bands [1]: 75 ng | lowest protein per band stained [1]: 200 ng

SMILES: CCCCCCCCNS(=O)(=O)c1cccc2c(N(C)C)cccc12 [octyl dansyl derivative]
staining quality compared to the amino or butyl derivatives [3]: much better stains compared to the amino or butyl derivatives | visibility of protein bands ([3]; 15 min staining, 0.05 OD328-equivalent in 2% ethanol, 200-12.5 ng per band): easily visualized in the photograph of the gel | change in staining of bovine serum albumin and ovalbumin ([3]; overnight staining): somewhat fainter after the overnight incubation | visibility of protein bands ([3]; overnight staining): easily visible | staining result relative to n-hexyl derivative ([2]; two hours of staining): Essentially equivalent results, but with lower fluorescence intensities

SMILES: CCCCNS(=O)(=O)c1cccc2c(N(C)C)cccc12 [n-butyl dansyl derivative]
lowest protein per band visible ([2]; two hours of staining): 300 ng

SMILES: CCCCCCCCCCNS(=O)(=O)c1cccc2c(N(C)C)cccc12 [decyl derivative]
lowest protein per band visible ([2]; two hours of staining): 25 ng | protein per band at which most of the protein species were visible ([2]; after 1% acetic acid, three hours): 6.25 ng | protein per band at which at least some of the bands could be visualized ([2]; overnight staining): 12.5 ng

SMILES: CCCCCCNS(=O)(=O)c1cccc2c(N(C)C)cccc12 [n-hexyl derivative]
lowest protein per band visible ([2]; two hours of staining): 25 ng | protein per band at which some of the bands were visible ([2]; two hours of staining): 12.5 ng

SMILES: CN(C)c1cccc2c(S(N)(=O)=O)cccc12 [control dansyl amine, reference compound]
visibility of protein bands ([3]; overnight staining): no bands were seen

Absorbance at the peak near 630 nm ([4]; diluted 1:500 in 1:1 methanol:water): 0.83
SMILES: CCCCCCCCCCCC(=O)N(c1ccc(OCC)cc1)c1ccc(C(=C2C=CC(=[N+](CC)Cc3cccc(S(=O)(=O)[O-])c3)C=C2)c2ccc(N(CC)Cc3cccc(S(=O)(=O)O)c3)cc2)cc1 [Promega Green 3]
lowest protein amount per band visible while the gel was running [5]: 1.0 µg | lowest protein amount per band visible after enhancement ([6]; 1-2 minutes): 0.25 µg | staining after overnight incubation ([6]; overnight): darker background color

maximal absorbance wavelength (major peak) ([4]; 1:1 methanol:water, 700 to 340 nm): around 590 nm
SMILES: CCOc1ccc(Nc2ccc(C(=C3C=CC(=[N+](CC)Cc4cccc(S(=O)(=O)[O-])c4)C=C3)c3ccc(N(CC)Cc4cccc(S(=O)(=O)O)c4)cc3)cc2)cc1 [Coomassie Blue R, reference compound]

SMILES: O=C(O)c1cc(NC(=S)Nc2ccc(NC(=S)Nc3ccc(-c4c5ccc(=O)cc-5oc5cc(O)ccc45)c(C(=O)O)c3)cc2)ccc1-c1c2ccc(=O)cc-2oc2cc(O)ccc12 [difluorescein phenylenediamine]
lowest protein per band stained [1]: 200 ng
